Assays:
[1] = aqueous solubility; format: physicochemical; details: in water
[2] = NMR detection of a defective blood-brain barrier in the region of a cranial abscess; format: in vivo; details: NMR diagnosis; complex in the form of salts with good aqueous solubility; preferably 0.1-0.5 mmole/kg
Excerpt: In contrast to conventional X-ray diagnosis with radiopaque X-ray contrast media, in NMR diagnosis with paramagnetic contrast medium there is no linear dependence of the signal enhancement on the concentration used. […] For this reason, it was surprising that some pathological processes can be seen only after application of a strongly paramagnetic contrast medium, according to the invention, higher than the doses indicated in EP No. 71564 (which can be from 0.001 mmole/kg to 5 mmole/kg). […] For a dose greater than 0.1 mmole/kg, solutions of high concentrations up to 1 mole/l, preferably 0.25 to 0.75 mole/l, are necessary, since only in this way is the volume load reduced and handling of the injection solution assured.

| aqueous solubility [1] | Compound | dose at which a defective blood-brain barrier can be detected [2] [mmol/kg] |
| --- | --- | --- |
| good aqueous solubility | O=C([O-])CCCCCCCCCCNC(=O)CN(CCN(CCN(CC(=O)[O-])CC(=O)NCCCCCCCCCCC(=O)[O-])CC(=O)[O-])CC(=O)[O-].[Gd+3].[Na+].[Na+] [Example 2, disodium salt of gadolinium(III) complex of 13,23-dioxo-15,18,21-tris(carboxymethyl)-12,15,18,21,24-pentaazapentatriacontanedioic acid] |  |
|  | O=C(O)CN(CC(=O)O)C1CCCCC1N(CC(=O)O)CC(=O)O.[Mn] (stereo not shown) [manganese-1,2-cyclohexenediaminetetraacetic acid] | 0.05 to 2.5 |
|  | O=C([O-])CN(CCN(CC(=O)[O-])CC(=O)O)CCN(CC(=O)[O-])CC(=O)O.[Gd+3] [gadolinium diethylenetriaminepentaacetic acid] | 0.05 to 2.5 |
| insoluble in water | O=C([O-])CN(CCN(CC(=O)[O-])CC(=O)NCCCCCCCCCCC(=O)O)CCN(CC(=O)[O-])CC(=O)NCCCCCCCCCCC(=O)O.[Gd+3] [Gadolinium(III) complex of 13,23-dioxo-15,18,21-tris(carboxymethyl)-12,15,18,21,24-pentaazapentatriacontanedioic acid] |  |
